Test results published in paper PMC10552892, “Ebselen oxide and derivatives are new allosteric HER2 inhibitors for HER2‐positive cancers” (Molecular Oncology, 2023).
“Also recorded” adds a separate entry of the source.

Columns and labels:
[1] = system: HER2+ breast cancer cells; test: HER2-dependent (anchorage-dependent) proliferation, Table 1; type: cell-based, human
Text: Given the promising effects of ebselen oxide, we then evaluated several structurally related compounds in order to define the structural determinants essential for HER2 binding and inhibition. […] These observations allowed us to define a pharmacophore of ebselen derivatives required for HER2 inhibition where atoms in position Y and R (shown in red in structure) can be modified as followed: Y is either a S or a Se=O and R is either H or Cl or Me but not OMe or CF3 (Table 1).

[2] = target: T1, JMHER2/FERME interaction (biot-JMHER2 peptide and GST-FERME, N-terminal FERM domain of ezrin) (Homo sapiens, UniProt P04626); test: AlphaScreen competition of HER2 juxtamembrane peptide / ezrin FERM domain interaction; type: binding; settings: for Inhibition of HER2-FERME interaction, %: compound 0–50 μM, biot-JMHER2 5 nM; for EC50: read-out: EC50, μM (inhibition of HER2-FERME interaction); for Competition with HER2/FERM interaction / binding affinity for JMHER2: compared to ebselen oxide
T1 construct: purchased Proteogenix
Procedure: Biotinylated peptide derived from HER2 cytosolic juxtamembrane region (JMHER2, […] ) has been synthesized by Proteogenix (Schiltigheim, France). The binding reaction was described previously. Briefly, white 384‐well Optiplates (PerkinElmer, Whalham, MA, USA) were used to prepare GST‐FERME and biotinylated peptide in a binding buffer (PBS, pH 7.4, 5 mM MgCl2, and 0.02% CHAPS). GST‐FERME was incubated with biotinylated‐HER2 for 30 min at room temperature. AlphaScreen® Streptavidin Donor beads (20 μg·mL^−1) and Glutathione AlphaLISA® Acceptor Beads (20 μg·mL^−1) were added to the wells for overnight incubation in the dark and at room temperature. Light signal was detected with the EnVision® multilabel plate reader (PerkinElmer).
Ebselen came out as an interesting hit. Ebselen is a synthetic organoselenium compound with the anti‐inflammatory and antioxidant property that has been evaluated in clinical trials for ischemic stroke and acute hearing loss. However, in vivo, ebselen rapidly reacts with peroxynitrite to form ebselen oxide. […] In addition, using surface plasmon resonance (SPR), we confirmed that both compounds could directly bind to JMHER2 (Fig. 1E,F). […] The slight decrease in HER2 expression was not significant. To examine whether HER2 inhibition by ebselen oxide was dependent on JMHER2/FERME interaction, we transfected HBMEC cells with a previously described glycoprotein D‐tagged HER2 form mutated on the critical amino acids involved in ERM binding (gD‐HER2‐EBM*).

HER2 (pY1248) in SKBR3 = target: T2, HER2 (pY1248) in SKBR3 (Homo sapiens, UniProt P04626); test: HER2 activation (pY1248-HER2) in SKBR3 cells, western/dot blot; type: cell-based; set-up: Inhibition of HER2 activation / HER2 inhibition, %: concentration or dose not given beside the values; settings: for Inhibition of HER2 activation/activity: HER2+ breast cancer cells (SKBR3 in Fig. S1); for HER2 inhibition, % / EC50: Table 1, HER2+ breast cancer cells (ebselen oxide value equals SKBR3 48 h); for EC50: read-out: EC50, μM (HER2 inhibition)
T2 construct: host or cells: SKBR3
T2 sequence (P04626 23-1255): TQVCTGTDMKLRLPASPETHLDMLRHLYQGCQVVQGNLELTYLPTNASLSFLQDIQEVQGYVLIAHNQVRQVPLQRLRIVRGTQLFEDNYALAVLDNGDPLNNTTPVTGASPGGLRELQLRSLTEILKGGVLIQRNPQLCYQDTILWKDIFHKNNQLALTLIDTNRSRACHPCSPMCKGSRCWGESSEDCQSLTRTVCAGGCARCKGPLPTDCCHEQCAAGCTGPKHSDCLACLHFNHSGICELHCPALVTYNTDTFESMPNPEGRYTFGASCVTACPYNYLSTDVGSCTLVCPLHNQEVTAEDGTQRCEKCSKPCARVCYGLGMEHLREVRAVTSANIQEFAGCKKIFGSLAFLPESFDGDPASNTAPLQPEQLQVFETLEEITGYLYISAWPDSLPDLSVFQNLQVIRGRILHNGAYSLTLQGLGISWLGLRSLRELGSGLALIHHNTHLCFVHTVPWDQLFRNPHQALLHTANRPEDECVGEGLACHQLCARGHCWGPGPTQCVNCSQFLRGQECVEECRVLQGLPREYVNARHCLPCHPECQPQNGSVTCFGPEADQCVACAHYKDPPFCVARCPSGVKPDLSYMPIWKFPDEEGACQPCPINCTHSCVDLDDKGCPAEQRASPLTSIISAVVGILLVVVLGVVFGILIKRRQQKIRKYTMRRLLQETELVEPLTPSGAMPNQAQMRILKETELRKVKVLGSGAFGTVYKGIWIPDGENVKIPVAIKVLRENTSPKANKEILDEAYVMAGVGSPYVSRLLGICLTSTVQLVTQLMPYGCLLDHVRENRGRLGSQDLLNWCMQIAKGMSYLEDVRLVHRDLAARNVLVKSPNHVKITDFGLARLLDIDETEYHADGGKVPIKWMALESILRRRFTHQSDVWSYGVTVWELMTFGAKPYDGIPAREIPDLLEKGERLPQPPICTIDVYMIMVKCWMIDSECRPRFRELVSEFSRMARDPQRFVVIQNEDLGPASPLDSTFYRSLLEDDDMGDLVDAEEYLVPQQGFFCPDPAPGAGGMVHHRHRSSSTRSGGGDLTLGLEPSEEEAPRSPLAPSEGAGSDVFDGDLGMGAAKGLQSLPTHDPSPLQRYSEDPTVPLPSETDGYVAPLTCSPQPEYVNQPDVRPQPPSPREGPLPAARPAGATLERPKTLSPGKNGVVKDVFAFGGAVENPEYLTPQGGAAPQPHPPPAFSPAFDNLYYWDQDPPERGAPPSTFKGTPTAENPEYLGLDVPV

NCI-N87 [3] = test: Incucyte proliferation, single agents and combinations, NCI-N87; type: cell-based; settings: Homo sapiens, NCI-N87, 96 h; read-out: Reduction/inhibition of cell proliferation
Procedure: (§1) (A–C) Proliferation curves of HER2‐positive (SKBR3, A; BT474, B; NCI‐N87, C) cancer cell lines treated or not with ebselen oxide (10 μM), lapatinib (10–1000 nM), or combination of these agents, as indicated. Proliferation was assessed overtime by Incucyte during 4 days. Data are mean ± SD (n = 8–12) of a representative experiment out of 4 (A), 3 (B), or 2 (C) independent experiments. […] Proliferation was assessed by Incucyte during 4 days. […] Scale bars are […].

NCI-N87 [4] = test: Anchorage-independent growth (spheroid assay, ULA plates), NCI-N87; type: cell-based, human; settings: ebselen oxide 10 μM, lapatinib 10 nM, trastuzumab 10 μg·mL−1, alone or combined
SKBR3 = test: Incucyte proliferation, single agents and combinations, SKBR3; type: cell-based; settings: Homo sapiens, SK-BR-3, 96 h; read-out: Reduction/inhibition of cell proliferation
Procedure: as §1

HER2 (pY1248) in NCI-N87 = target: T3, HER2 (pY1248) in NCI-N87 (Homo sapiens, UniProt P04626); test: HER2 activation in NCI-N87 gastric cancer cells, western blot; type: cell-based
T3 construct: host or cells: NCI-N87
T3 sequence (P04626 23-1255): as above
Procedure: (A-C) HER2-positive […] (SKBR3, A; NCI-N87, B; BT474, C) treated or not with Ebselen
indicated, were analyzed by western blot to evaluate HER2 activation status using antibodies directed
Proliferation was assessed by Incucyte during 4 days.

BT474 = test: Incucyte proliferation, single agents and combinations, BT474; type: cell-based; settings: Homo sapiens, BT-474, 96 h; read-out: Reduction/inhibition of cell proliferation
Procedure: as §1

HER2 (pY1248) in SKOV3 = target: T4, HER2 (pY1248) in SKOV3 (Homo sapiens, UniProt P04626); test: HER2 activation in SKOV3 ovarian cancer cells, western blot; type: cell-based; settings: ebselen oxide 0–10 μM 24 h, AG1478 5 μM
T4 construct: host or cells: SKOV3
T4 sequence (P04626 23-1255): as above
Procedure: Human bone marrow endothelial cells (HBMECs) kindly provided by Dr. B. Weksler (Weill Medical College of Cornell University, NY) were cultured as described previously. The human breast cancer cell lines [SKBR3 (RRID:CVCL_0033), BT474 (RRID:CVCL_0179), and MDA‐MB‐231 (RRID:CVCL_0062)], the human gastric [NCI‐87 (RRID:CVCL_1603)] and ovarian [SKOV3 (RRID:CVCL_0532)] cancer cell lines were obtained from the American Type Culture Collection (Manassas, VA) and were maintained in DMEM containing 10% FBS. All cell lines were cultured under 5% CO2 at 37 °C. HBMECs were transfected using Amaxa Inc nucleofector system (Kit V and U015 program). […]
Fig. 3 Ebselen oxide inhibits HER2 activation and HER2‐dependent proliferation in gastric and ovarian HER2^+ cancer cells. (A) HER2‐positive NCI‐87 gastric cancer cells were treated with ebselen oxide (0–20 μM) for 24 h, lysed, and analyzed by western blot using anti‐pY1248‐HER2, HER2, and β‐tubulin antibodies. […] (B) HER2‐positive SKOV3 ovarian cancer cells were treated with ebselen oxide (0–10 μM) for 24 h, lysed, and analyzed by western blot using anti‐pY1248‐HER2, HER2, and ezrin antibodies. […] (C, D) Proliferation curves of NCI‐N87 gastric (C) or SKOV3 ovarian (D) cancer cells treated with vehicle or 7–10 μM ebselen oxide measured by MTT assay. […]

SKOV3 = test: Proliferation of SKOV3 cells; type: cell-based, human; settings: ebselen oxide 7–10 μM, AG1478 5 μM
NCI-N87 [5] = test: Proliferation of NCI-N87 cells; type: cell-based, human; settings: ebselen oxide 7–10 μM, AG1478 5 μM
Procedure: Fig. 3 Ebselen oxide inhibits HER2 activation and HER2‐dependent proliferation in gastric and ovarian HER2^+ cancer cells. (A) HER2‐positive NCI‐87 gastric cancer cells were treated with ebselen oxide (0–20 μM) for 24 h, lysed, and analyzed by western blot using anti‐pY1248‐HER2, HER2, and β‐tubulin antibodies. A representative western blot is shown out of 4 independent experiments. (B) HER2‐positive SKOV3 ovarian cancer cells were treated with ebselen oxide (0–10 μM) for 24 h, lysed, and analyzed by western blot using anti‐pY1248‐HER2, HER2, and ezrin antibodies. A western blot is shown (n = 1). (C, D) Proliferation curves of NCI‐N87 gastric (C) or SKOV3 ovarian (D) cancer cells treated with vehicle or 7–10 μM ebselen oxide measured by MTT assay. Data are mean ± SEM (n = 9–12) of three independent experiments.
Supplementary figure 4: NCI-N87 and SKOV3 cancer cell lines are addicted to the HER2 pathway
(A) NCI-N87 cells were treated (+) or not (-) with a non-specific HER2 inhibitor AG1478 (5 µM). Whole cell lysates were analyzed by western blot with pY1248 HER2, HER2 and pERK antibodies.
(B) SKOV3 cells were treated (+) or not (-) with a non-specific HER2 inhibitor AG1478 (5 µM). Whole cell lysates were analyzed by western blot with pY1248 HER2, HER2, pERK or beta-tubulin antibodies.
(C) Proliferation curves of NCI-N87 treated or not with AG1478 (5 µM). Data are mean ± sem (n=4-6). 2- […]

[6] = set-up: method as in PMID 11546910; settings: after intravenous injection; cited from earlier work
[7] = set-up: method as in PMID 34299505; settings: whatever the administered doses; cited from earlier work
[8] = system: main protease of SARS‐CoV‐2; set-up: method as in PMID 33120196; settings: cited from earlier work
[9] = set-up: method as in PMID 23299882; settings: cited from earlier work
[10] = target: T5, JMHER2 (peptide derived from the cytosolic juxtamembrane sequence of HER2) (Homo sapiens, UniProt P04626); test: Surface plasmon resonance binding to immobilized HER2 juxtamembrane peptide; settings: analyte 5 or 10 μM, 60 s injection
T5 construct: purchased Proteogenix
Procedure: Interaction was performed on a BIAcore T200 instrument BIAcore (Cytiva Life Sciences, Marlborough, MA, USA); GE Healthcare (Little Chalfont, UK). […] Ebselen or ebselen oxide was used as an analyte and injected at 5 or 10 μM at a flow rate of 25 μL·min^−1 for 60 s.

| Inhibition of HER2-FERME interaction, % ([2]; AlphaScreen, 20 h) | EC50 ([2]; AlphaScreen, 20 h) | Competition with HER2/FERM interaction / binding affinity for JMHER2 [2] | Inhibition of HER2 activation/activity (HER2 (pY1248) in SKBR3) | HER2 inhibition, % (HER2 (pY1248) in SKBR3) | SMILES | Effect on proliferation of HER2+ breast cancer cells [1] | EC50 (HER2 (pY1248) in SKBR3) | further results |
| --- | --- | --- | --- | --- | --- | --- | --- | --- |
| 47.3% | 0.003 µM | greater binding affinity | no or low inhibition | 0.0% | O=C1c2ccccc2C(=O)N1c1ccccc1 [Analog 4, N‐phenylphtalimide] | no or low inhibition | – | – |
| 49.0% | 0.255 µM | greater binding affinity | no or low inhibition | 16.3% | CC(C)c1ccc(N2Cc3ccccc3C2=O)cc1 [Analog 5, 2‐(4‐isopropyl phenyl)‐1‐isoindolinone] | no or low inhibition | 2 µM | – |
| 100% | 95.1 µM | drastically reduced | – | – | O=c1c2ccccc2[s+]([O-])n1-c1ccc(Cl)cc1 (centres unmarked) [Analog 8, 2‐(4‐chlorophenyl)‐1‐oxo‐1,2‐benzothiazol‐3‐one] | – | – | – |
| – | – | – | – | – | CS(=O)(=O)CCNCc1ccc(-c2ccc3ncnc(Nc4ccc(OCc5cccc(F)c5)c(Cl)c4)c3c2)o1 [lapatinib, Lapatinib ditosylate, reference compound] | – | – | inhibition at 0.01 µM (NCI-N87 [3]): 53%; Reduction of anchorage-independent growth (spheroid assay) (NCI-N87 [4]): 35%; Effect on HER2 activation, single agents and combination (HER2 (pY1248) in SKBR3; SKBR3, ebselen oxide 10 μM, lapatinib 10 nM): partially decreased; inhibition at 0.01 µM (SKBR3): 39%; Effect on HER2 activation, single agents and combination (HER2 (pY1248) in NCI-N87; ebselen oxide 10 μM, lapatinib 10 nM): partially decreased; inhibition at 0.01 µM (BT474): 18% |
| – | – | – | – | – | COc1cc2ncnc(Nc3cccc(Cl)c3)c2cc1OC [AG1478, Tyrphostin AG1478, reference compound] | – | – | Effect on HER2 activation (HER2 (pY1248) in SKOV3): decrease; Effect on proliferation (SKOV3): decrease; Effect on proliferation (NCI-N87 [5]): decrease; Effect on HER2 activation (HER2 (pY1248) in NCI-N87; ebselen oxide 0–20 μM 24 h, AG1478 5 μM): decrease |
| 43.6% | 2.53 µM | – | no or low inhibition | 0.2% | Cc1ccc(-n2c(=O)c3ccccc3[s+]2[O-])cc1 (centres unmarked) [Analog 6, 2‐(4‐Methylphenyl)‐1‐oxo‐1,2‐benzothiazol‐3‐one] | no or low inhibition | – | – |
| 100% | 97 µM | drastically reduced | – | – | O=c1c2ccccc2sn1-c1ccc(C(F)(F)F)cc1 [Analog 7, 2‐[4‐(trifluoromethyl)phenyl]‐1,2‐benzothiazol‐3‐one] | – | – | – |
| 40.4% | 1.08 µM | competed | inhibited | 75.4% | O=c1c2ccccc2sn1-c1ccc(Cl)cc1 [Analog 2, 2‐(4‐chlorophenyl)‐1,2‐benzisothiazol‐3(2H)‐one] | reduced | 41.7 µM | – |

| SMILES | Inhibition of HER2-FERME interaction, % ([2]; AlphaScreen, 20 h) | EC50 ([2]; AlphaScreen, 20 h) | Competition with HER2/FERM interaction / binding affinity for JMHER2 [2] | Inhibition of HER2 activation/activity (HER2 (pY1248) in SKBR3) | HER2 inhibition, % (HER2 (pY1248) in SKBR3) | Effect on proliferation of HER2+ breast cancer cells [1] | EC50 (HER2 (pY1248) in SKBR3) | further results |
| --- | --- | --- | --- | --- | --- | --- | --- | --- |
| O=c1c2ccccc2[se]n1-c1ccccc1 [Ebselen] | – | 0.044 µM | – | poorly inhibited; also recorded: did not inhibit | 14.4% | – | 51.3 µM | Half-life [6]: 1 to 3 h; Time to maximum serum concentration [6]: 1 h; Tolerability in vivo [7]: always well tolerated; IC50 ([2]; AlphaScreen, 20 h): 0.044 µM; Inhibition of the main protease of SARS-CoV-2 [8]: highly active; Blood–brain barrier permeation [9]: blood–brain barrier permeant; Direct binding to JMHER2 (SPR) [10]: directly bind |
| Cc1ccc(-n2sc3ccccc3c2=O)cc1 [Analog 1, 2‐(4‐methylphenyl)‐1,2‐benzisothiazol‐3(2H)‐one] | 45.0% | 0.716 µM | competed | inhibited | 65.0% | reduced | 39.8 µM | – |
